# Assay: Cytotoxicity against human NCI60 cells
# Assay type: functional
# Conditions: read-out: LC50 (the source's name)
row,SMILES,CC50
1,CC[C@H](C)[C@@H]1NC(=O)c2csc(n2)[C@@H](C)NC(=O)[C@H]2N=C(O[C@@H]2C)[C@H](CC(C)C)NC(=O)c2csc(n2)[C@@H](Cc2ccccc2)NC(=O)[C@H]2N=C1O[C@@H]2C [PATELLAMIDE B],13 µM
2,CC(C)[C@@H]1NC(=O)c2csc(n2)[C@@H](C(C)C)NC(=O)[C@H]2N=C(O[C@@H]2C)[C@H](C(C)C)NC(=O)c2csc(n2)[C@@H](Cc2ccccc2)NC(=O)[C@@H]2COC1=N2 [PATELLAMIDE F],48 µM
3,CC(C)C[C@H]1NC(=O)[C@H]2N=C(O[C@@H]2C)[C@H]2CSSC[C@@H](NC(=O)c3csc1n3)C1=N[C@H](C(=O)N[C@H](CC(C)C)c3nc(cs3)C(=O)N2)[C@@H](C)O1 [ULITHIACYCLAMIDE],3 µM

# Source: ChEMBL document CHEMBL1159239, “Patellamide F, A new cytotoxic cyclic peptide from the colonial ascidian Lissoclinum patella” (1995)
